Patent US8691758B2, “Inhibitors of serine proteases, particularly HCV NS3-NS4A protease” (Vertex Pharmaceuticals Incorporated, priority 2003, dated 2014)

What was measured:
[1] = biological target: HCV NS3-NS4A protease (tNS3 with KK4A) (Hepatitis C virus genotype 1a, UniProt P27958); assay: HCV Ki assay (HPLC microbore separation of 5AB substrate and products); type: biochemical; details: 25 nM tNS3, 25 μM KK4A, 25 μM 5AB substrate, 20 min at 30 C
Protocol: HPLC Microbore Method for Separation of 5AB Substrate and Products
• NH2-Glu-Asp-Val-Val-(alpha)Abu-Cys-Ser-Met-Ser-Tyr-COOH
A stock solution of 20 mM 5 AB (or concentration of your choice) was made in DMSO w/0.2M DTT. This was stored in aliquots at −20 C.
Buffer: 50 mM HEPES, pH 7.8; 20% glycerol; 100 mM NaCl
Total assay volume was 100 μL
The buffer, KK4A, DTT, and tNS3 were combined; distributed 78 μL each into wells of 96 well plate. This was incubated at 30 C for ˜5-10 min.
2.5 μL of appropriate concentration of test compound was dissolved in DMSO (DMSO only for control) and added to each well. This was incubated at room temperature for 15 min.
Initiated reaction by addition of 20 μL of 250 μM 5AB substrate (25 μM concentration is equivalent or slightly lower than the Km for 5 AB). • Incubated for 20 min at 30 C. • Terminated reaction by addition of 25 μL of 10% TFA • Transferred 120 μL aliquots to HPLC vials
Separated SMSY product from substrate and KK4A by the following method:
Microbore Separation Method:
• Instrumentation: Agilent 1100 • Degasser G1322A • Binary pump G1312A • Autosampler G1313A • Column thermostated chamber G1316A • Diode array detector G1315A • Column: • Phenomenex Jupiter; 5 micron C18; 300 angstroms; 150×2 mm; P/O 00F-4053-B0 • Column thermostat: 40 C • Injection volume: 100 μL • Solvent A=HPLC grade water+0.1% TFA • Solvent B=HPLC grade acetonitrile+0.1% TFA
• Stop time: 17 min • Post-run time: 10 min.

[2] = tested on: Cells containing hepatitis C virus (HCV) replicon; assay: HCV replicon cell assay (Taqman RT-PCR of HCV RNA); type: cell-based; details: concentration at which 50% inhibition of HCV RNA level is observed, 48-hour incubation, 2% FBS
Protocol: HCV Replicon Cell Assay Protocol
Cells containing hepatitis C virus (HCV) replicon were maintained in DMEM containing 10% fetal bovine serum (FBS), 0.25 mg per ml of G418, with appropriate supplements (media A).
On day 1, replicon cell monolayer was treated with a trypsin:EDTA mixture, removed, and then media A was diluted into a final concentration of 100,000 cells per ml wit. 10,000 cells in 100 ul were plated into each well of a 96-well tissue culture plate, and cultured overnight in a tissue culture incubator at 37° C.
On day 2, compounds (in 100% DMSO) were serially diluted into DMEM containing 2% FBS, 0.5% DMSO, with appropriate supplements (media B). The final concentration of DMSO was maintained at 0.5% throughout the dilution series.
Media on the replicon cell monolayer was removed, and then media B containing various concentrations of compounds was added. Media B without any compound was added to other wells as no compound controls.
Cells were incubated with compound or 0.5% DMSO in media B for 48 hours in a tissue culture incubator at 37° C. At the end of the 48-hour incubation, the media was removed, and the replicon cell monolayer was washed once with PBS and stored at −80° C. prior to RNA extraction.
Culture plates with treated replicon cell monolayers were thawed, and a fixed amount of another RNA virus, such as Bovine Viral Diarrhea Virus (BVDV) was added to cells in each well. RNA extraction reagents (such as reagents from RNeasy kits) were added to the cells immediately to avoid degradation of RNA. Total RNA was extracted according the instruction of manufacturer with modification to improve extraction efficiency and consistency. Finally, total cellular RNA, including HCV replicon RNA, was eluted and stored at −80° C. until further processing.
A Taqman real-time RT-PCR quantification assay was set up with two sets of specific primers and probe. One was for HCV and the other was for BVDV. Total RNA extractants from treated HCV replicon cells was added to the PCR reactions for quantification of both HCV and BVDV RNA in the same PCR well. Experimental failure was flagged and rejected based on the level of BVDV RNA in each well. The level of HCV RNA in each well was calculated according to a standard curve run in the same PCR plate. The percentage of inhibition or decrease of HCV RNA level due to compound treatment was calculated using the DMSO or no compound control as 0% of inhibition. The IC50 (concentration at which 50% inhibition of HCV RNA level is observed) was calculated from the titration curve of any given compound.

Chain of HCV NS3-NS4A protease (tNS3 with KK4A) (P27958 1658-1711): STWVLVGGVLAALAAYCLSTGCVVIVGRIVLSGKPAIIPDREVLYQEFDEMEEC
Chain of HCV NS3-NS4A protease (tNS3 with KK4A) (P27958 1027-1208): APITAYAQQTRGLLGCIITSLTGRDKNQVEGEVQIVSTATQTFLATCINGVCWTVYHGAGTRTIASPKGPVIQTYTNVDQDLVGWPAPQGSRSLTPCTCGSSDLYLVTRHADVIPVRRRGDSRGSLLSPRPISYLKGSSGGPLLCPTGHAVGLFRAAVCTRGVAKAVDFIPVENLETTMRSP

| SMILES | Ki [1] [nM] | IC50 [2] [nM] |
| --- | --- | --- |
| CCC[C@H](NC(=O)[C@@H]1CC2(CN1C(=O)[C@@H](NC(=O)[C@@H](NC(=O)c1[nH]c(C)c(C)c1C(C)=O)C1CCCCC1)C(C)(C)C)SCCCS2)C(=O)C(=O)NC1CC1 [Compound 1a, 2-(2-{2-[(3-acetyl-4,5-dimethyl-1H-pyrrole-2-carbonyl)-amino]-2-cyclohexyl-acetylamino}-3,3-dimethyl-butyryl)-6,10-dithia-2-aza-spiro[4.5]decane-3-carboxylic acid(1-cyclopropylaminooxalyl-butyl)-amide] | < 500 | < 500 |
| CCC[C@H](NC(=O)[C@@H]1CC2(CN1C(=O)[C@@H](NC(=O)[C@@H](NC(=O)c1cnccn1)C1CCCCC1)C(C)(C)C)SCCCS2)C(=O)C(=O)NC1CC1 [Compound 2a, 2-(2-{2-cyclohexyl-2-[(pyrazine-2-carbonyl)-amino]-acetylamino}-3,3-dimethyl-butyryl)-6,10-dithia-2-azaspiro[4.5]decane-3-carboxylic acid(1-cyclopropylaminooxalyl-butyl)-amide] | < 500 | < 500 |
| CCC[C@H](NC(=O)[C@@H]1CC2(CN1C(=O)[C@@H](NC(=O)[C@@H](NC(=O)c1cnccn1)C1CCCCC1)C(C)(C)C)SCCCS2)C(=O)C(N)=O [Compound 3a] | < 500 | < 500 |
| CCC[C@H](NC(=O)[C@@H]1CC2(CN1C(=O)[C@@H](NC(=O)[C@@H](NC(=O)c1[nH]c(C)c(C)c1C(C)=O)C1CCCCC1)C(C)(C)C)SCCCS2)C(=O)C(N)=O [Compound 4a] | < 500 | < 500 |
| CCC[C@@H](NC(=O)[C@@H]1CC2(CN1C(=O)[C@@H](NC(=O)[C@@H](NC(=O)c1cnccn1)C1CCCCC1)C(C)(C)C)SCCCS2)C(=O)C(=O)NC1CC1 [Compound 5a] | < 500 |  |
| CCCC(NC(=O)[C@@H]1CC2(CN1C(=O)[C@@H](NC(=O)[C@@H](NC(=O)c1cnccn1)C1CCCCC1)C(C)(C)C)SCCCS2)C(=O)C(=O)NC1CC1 (stereo partly drawn) [Compound 6a] | < 500 |  |
| CCC[C@H](NC(=O)[C@@H]1CC2(CN1C(=O)[C@@H](NC(=O)[C@@H](NC(=O)c1cnccn1)C1CCCCC1)C(C)(C)C)SCCS2)C(=O)C(=O)NC1CC1 [Compound 7a] | < 500 | < 500 |
